Assay results published in PubChem BioAssay AID1919005 (Molecular Pharmacology Branch, DTP, NCI, 2023).

Test system: 855422-203-R-J1-PDC complex spheroid growth
Assay: Anticancer human tumor 855422-203-R-J1-PDC patient-derived bladder carcinoma cell line growth inhibition [AhR]
Conditions: for IC50: curve of first compound; for viability, T/C: stronger effect = lower value
Description: Multicellular complex tumor spheroid response to aryl hydrocarbon receptor antagonists in combination with a variety of drugs and investigational agents in selected tumor cell lines
The current study was undertaken to assess response to aryl hydrocarbon receptor antagonists in combination with standard-of-care drugs and investigational agents in solid tumor complex spheroid models. Complex spheroids include a stromal component modeled by human endothelial cells (HUVEC) and fibroblasts modeled by human mesenchymal stem cells (MSCs). The concentration ranges selected for each drug and investigational agent were based upon clinically achievable concentrations if the clinical Cmax of the agent was known.
Compounds. The drugs and investigational agents: BAY 2416964 (NSC825713), GNF351 (NSC835774), CH-223191 (NSC835775), CPI-455 (NSC825282), aza-TdCyd (NSC777586), decitabine (NSC127716), belinostat (NSC758774), entinostat (NSC756642), pevonedistat (NSC761192), tazemetostat (NSC777109), talazoparib (NSC765396), olaparib (NSC753686), selinexor (NSC780203), nedisertib (M3814, NSC802822), bortezomib (NSC756655), venetoclax (NSC766270), doxorubicin (NSC123127), elimusertib (BAY189344, NSC800525), ceralasertib (AZD6738, NSC777638), TAK-243 (NSC785004), alisertib (NSC759677), etoposide (NSC141540), topotecan (NSC609699), eribulin (NSC707389), gemcitabine (NSC613327), carboplatin (NSC241240), cisplatin (NSC119875), and SN-38 (NSC673596) were obtained from the National Cancer Institute (NCI) Developmental Therapeutics Program Chemical Repository (32). The FDA-approved anticancer drug set is available from the Developmental Therapeutics Program at https://dtp.cancer.gov/organization/dscb/obtaining/available plates.htm. […] The stock solutions were prepared in dimethyl sulfoxide (DMSO, Sigma-Aldrich, St. Louis, MO, cat. D2650), except for the platinum compounds which were prepared in saline (Quality Biological, Gaithersburg, MD, cat. 114-055-101), at 800-fold the tested concentration and stored at -70 degrees C prior to their use. All drugs and investigational agents were tested over a range starting from a high concentration at or near the clinical Cmax and decreasing in half-log increments. If the clinical Cmax for an agent had not been determined, the highest concentration tested was 10 microM (Table 1).
Cell Culture. All cells were maintained in an incubator at 37 degrees C and 5% CO2 with 95% humidity. The PDC lines were cultured according to standard operating procedures established by the NCI PDMR (https://pdmr.cancer.gov). Briefly, all PDCs were thawed and cultured in Matrigel-coated flasks prepared with a working solution of 1X Ham's F-12 nutrient mix, without supplementation (Invitrogen, Waltham, MA, cat. 11765054), 100 U/mL penicillin-streptomycin (Invitrogen, cat. 15140122), and 2.5% Matrigel (Corning Inc., Corning, NY, cat. 354248) for the first three passages. All PDCs were cultured in complete DMEM/F-12 media containing advanced DMEM/F-12 (Invitrogen, cat. 12634028), 4.9% defined fetal bovine serum, heat inactivated (HyClone Laboratories Inc., Logan, UT, cat. SH30070.03HI), 389 ng/mL hydrocortisone (Sigma-Aldrich, cat. H4001), 9.7 ng/mL human EGF recombinant protein (Invitrogen, cat. PHG0313), 23.4 microg/mL adenine (Sigma-Aldrich, cat. A2786), 97.3 U/mL penicillin-streptomycin (Invitrogen, cat. 15140122), 1.9 mM L-glutamine (Invitrogen, cat. 25030081), and 9.7 microM Y-27632 dihydrochloride (Tocris Bioscience, Bristol, United Kingdom, cat. 1254). The PDCs were cultured in complete DMEM/F12 media without 10 microM Y-27632 dihydrochloride for at least two passages prior to the screen. The established cell lines NCI-H1341 and […] were cultured in DMEM/F-12, HEPES (Invitrogen, cat. 11330032), 5% defined fetal bovine serum (HyClone Laboratories Inc., cat. SH30070.03), ITS premix universal culture supplement [insulin (5 microg/mL), transferrin (5 microg/mL), and selenious acid (5 ng/mL)] […]
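Note: spheroids exposed to agents for seven days before readout.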
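Throughout, for viability, T/C: percent of DMSO vehicle control luminescence viability.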

For `CCN(c1cc(-c2ccc(CN3CCOCC3)cc2)cc(C(=O)NCc2c(C)cc(C)[nH]c2=O)c1C)C1CCOCC1` + CC(CO)NC(=O)c1cc(-c2ccc(Cl)cc2)nn(-c2cnn(C)c2)c1=O, the IC50 (second compound 0.1 µM) was > 3 µM, the IC50 (second compound 0.316 µM) was > 3 µM and the IC50 (second compound 1 µM) was > 3 µM. For the same molecule, the IC50 (second compound 3.16 µM) was > 3 µM, the IC50 (second compound 10 µM) was > 3 µM and the viability, T/C (second compound 0.1 µM, first compound 0.00949 µM) was 94.1%. It also gave a viability, T/C (second compound 0.1 µM, first compound 0.03 µM) of 102%, a viability, T/C (second compound 0.1 µM, first compound 0.0949 µM) of 94.3% and a viability, T/C (second compound 0.1 µM, first compound 0.3 µM) of 95.7%. For the same molecule, the viability, T/C (second compound 0.1 µM, first compound 0.949 µM) was 86.2%, the viability, T/C (second compound 0.1 µM, first compound 3 µM) was 88.5% and the viability, T/C (second compound 0.316 µM, first compound 0.00949 µM) was 112%. For the same molecule, the viability, T/C (second compound 0.316 µM, first compound 0.03 µM) was 109%, the viability, T/C (second compound 0.316 µM, first compound 0.0949 µM) was 100% and the viability, T/C (second compound 0.316 µM, first compound 0.3 µM) was 95.5%. The viability, T/C (second compound 0.316 µM, first compound 0.949 µM) was 92.1%, the viability, T/C (second compound 0.316 µM, first compound 3 µM) was 92.6% and the viability, T/C (second compound 1 µM, first compound 0.00949 µM) was 100%. It also gave a viability, T/C (second compound 1 µM, first compound 0.03 µM) of 105%, a viability, T/C (second compound 1 µM, first compound 0.0949 µM) of 114% and a viability, T/C (second compound 1 µM, first compound 0.3 µM) of 94.5%. The viability, T/C (second compound 1 µM, first compound 0.949 µM) was 91.9%, the viability, T/C (second compound 1 µM, first compound 3 µM) was 88.8% and the viability, T/C (second compound 3.16 µM, first compound 0.00949 µM) was 98.6%. It also gave a viability, T/C (second compound 3.16 µM, first compound 0.03 µM) of 95.2%, a viability, T/C (second compound 3.16 µM, first compound 0.0949 µM) of 103% and a viability, T/C (second compound 3.16 µM, first compound 0.3 µM) of 94.1%. The viability, T/C (second compound 3.16 µM, first compound 0.949 µM) was 86%, the viability, T/C (second compound 3.16 µM, first compound 3 µM) was 77.4% and the viability, T/C (second compound 10 µM, first compound 0.00949 µM) was 96.5%. The viability, T/C (second compound 10 µM, first compound 0.03 µM) was 102%, the viability, T/C (second compound 10 µM, first compound 0.0949 µM) was 83.5% and the viability, T/C (second compound 10 µM, first compound 0.3 µM) was 92.8%. For the same molecule, the viability, T/C (second compound 10 µM, first compound 0.949 µM) was 103% and the viability, T/C (second compound 10 µM, first compound 3 µM) was 80.7%.
